Earlier results, collected in the CATMoS acute toxicity set (Mansouri et al. 2021).
Where “and” joins values, the source holds several entries; their conditions need not be identical. Identical values can stand only once.

Assay: rat acute oral toxicity
Details: in vivo
Text: […]The data set underlying the modeling effort for this project was initially compiled by NICEATM and U.S. EPA’s CCTE. Briefly, LD50 data were collected from rat acute oral systemic toxicity tests, including limit tests, ranges/confidence intervals, and discrete LD50 values. The full data set included 21,200 LD50 entries for 15,688 substances. […] Data were reviewed to ensure that LD50 values with obvious errors in the extracted data such as unit conversion errors (e.g., comma and decimal separator misplacements) were either fixed or removed. After this review, 16,209 LD50 values remained. Many of the chemicals represented had multiple LD50 entries, requiring that a single representative value per Chemical Abstracts Service Registry Number (CASRN) identifier be defined to facilitate modeling efforts. Based on ATWG feedback and to define the representative LD50 as a protective value while accounting for the distribution across multiple LD50s, the median of the lowest quartile was computed using only discrete LD50 values (omitting limit test data and range and confidence interval data). A detailed summary of the data compilation is available online on the NICEATM webpage dedicated to the collaborative modeling project (NTP 2020).
[…][…] For categorical designations, limit test and range/confidence interval LD50 data were integrated wherever possible. As such, the number of chemicals with end point values/calls varies across the modeling end points (Table 3) based on whether chemicals had representative LD50 values and/or other data. If a chemical had both, the representative value was used to determine categorical calls rather than limit test data. Some data were useable only for certain end points and categories depending on the thresholds. For example, ranges that spanned multiple hazard categories were considered only for the binary (very toxic/nontoxic) end points and omitted from rendering a determination for hazard category assignment.
[…]The final data set comprising 11,992 chemicals was split into training and evaluation sets […], respectively. This process was performed semirandomly by ordering chemicals based on the five end points (categorical and continuous LD50 values) and partitioning every fourth record into the evaluation set accordingly. This approach was taken to ensure an equivalent distribution of the LD50 values and the different hazard categories between the training and the evaluation sets without supervised sampling of the chemicals based on structures (Figure 1A). The sources of the chemical structures were also kept equivalent between the two sets, with chemical structures obtained from DSSTox, being the highest quality, representing over 75% of each set (Figure 1B).

Row | SMILES | LD50
1 | CC1N=C(N)CC1c1ccccc1 (stereo not given) | 420 mg/kg
2 | FC(F)(F)C(F)(F)OC(F)(F)C(F)(F)F | 20000 mg/kg
3 | CCCCC(CC)COC(N)=O (stereo not given) | 3150 mg/kg
4 | CCCCCCC1=CC(=O)CC(c2ccc3c(c2)OCO3)C1 (stereo not given) | 5200 mg/kg
5 | CCCCOCCOCCOCCO | 5300 mg/kg
6 | COC1=C2C[C@@H](C)C[C@H](OC)[C@H](O)[C@@H](C)C=C(C)[C@H](OC(N)=O)[C@@H](OC)C=CC=C(C)C(=O)NC(=CC1=O)C2=O | 2500 mg/kg
7 | COC(=O)Nc1nc2ccccc2[nH]1 | 6400 mg/kg and 12500 mg/kg and 7500 mg/kg
8 | CCCOc1cccc(C)c1N(COCC)C(=O)CCl | 2600 mg/kg
9 | C=C(C)C(=O)OCCCl | 200 mg/kg
10 | CCSc1nnc(C(C)(C)C)c(=O)n1N | 599 mg/kg
11 | Cc1c(Cl)cc(-c2ccc(O)nn2)cc1Cl | 12000 mg/kg
12 | CC(C)CCCCCCCCCCO | 17000 mg/kg
13 | O=C1N=C2c3ccccc3N=CN2C1=Cc1ccc([N+](=O)[O-])cc1 | 1290 mg/kg
14 | CCOC(=S)c1ccc(Cl)cc1 | 995 mg/kg
15 | COP(N)(=S)SC (stereo not given) | 250 mg/kg
16 | CC(C)NNC(=O)COc1ccc(Cl)cc1 | 550 mg/kg
17 | Cc1ccc2c(c1)CC(=O)c1cc(C(C)C(=O)O)ccc1S2 (stereo not given) | 100 mg/kg
18 | CC1CC=CC2C3OC3(C)C(C)C3C(Cc4ccccc4)NC(=O)C23OC(=O)OC=CC(C)(O)C1=O (stereo not given) | 9.1 mg/kg
19 | CSc1ccc(O)cc1C | 3400 mg/kg
20 | CO[C@H]1CC[C@H](O[C@@H]2C[C@]3(C[C@H](O)[C@@H](C)[C@@H]([C@@H](C)C=C(C)C(=O)[C@H](C)C[C@H](C)C(=O)O)O3)O[C@]2(C)[C@H]2CC[C@@H](C)C3(O[C@@H]([C@@H]4O[C@](O)(CO)[C@@H](C)C[C@H]4C)C[C@@H]3C)O2)O[C@@H]1C (stereo not given in full) | 7.5 mg/kg
21 | NCCCCC(CN)CCCN (stereo not given) | 760 mg/kg
22 | CC(C)=CC(=O)Nc1ccc(O)cc1 | 1950 mg/kg
23 | CC(C)CCOC=O | 9840 mg/kg
24 | ClCC(Cl)(Cl)CCl | 6300 mg/kg
25 | Oc1cc(Cl)c(Cl)c(Cl)c1-c1c(Cl)c(Cl)c(Cl)c(Cl)c1OCl | 360 mg/kg

Row | SMILES | LD50
26 | COC(N)=O | 2500 mg/kg
27 | CC(C)C1=CCC(CCOC=O)=CC1 | 3570 mg/kg
28 | CC1=C2C(=O)O[C@@H](c3ccoc3)[C@]2(C)CCC1 | 274 mg/kg
29 | CC(C)(OO)c1ccccc1 | 382 mg/kg
30 | O=C(Nc1c(Cl)c(Cl)c(Cl)c2nc(C(F)(F)F)[nH]c12)c1ccccc1 | 100 mg/kg
31 | CC(C)(O)Cc1ccccc1 | 1280 mg/kg
32 | Clc1ccc(CCC(Cn2ccnc2)Sc2c(Cl)cccc2Cl)cc1 (stereo not given) | 1720 mg/kg
33 | CCCCSc1ccc(C(SCCN(C)C)c2ccccc2)cc1 (stereo not given) | 3800 mg/kg
34 | CN(C)c1ccc(Cn2cnc3c2c(=O)n(C)c(=O)n3C)cc1 | 1100 mg/kg
35 | CC(=O)SCc1cnc(C)c(O)c1CSC(C)=O | 870 mg/kg
36 | C[N+]1(C)[C@@H]2CC[C@H]1C[C@@H](OC(=O)C(CO)c1ccccc1)C2 (stereo not given in full) | 1050 mg/kg and 1900 mg/kg
37 | C[Si]1(C)N[Si](C)(C)N[Si](C)(C)N[Si](C)(C)N1 | 100 mg/kg
38 | CN(c1ccc(Cl)cc1)S(=O)(=O)c1ccc(Cl)cc1 | 2500 mg/kg
39 | CCN(N=O)C(C)(C)C | 1600 mg/kg
40 | C#CC(C)(CCC=C(C)C)OC(C)=O (stereo not given) | 9620 mg/kg
41 | O=[N+]([O-])c1cc([N+](=O)[O-])c2nc(C(F)(F)F)[nH]c2c1 | 11.5 mg/kg
42 | N#CCCN1CC=C(c2cccc(C(F)(F)F)c2)CC1 | 515 mg/kg
43 | CC(C)COc1ccc2ccccc2c1 | 5930 mg/kg
44 | Nc1ncnc2c1ncn2[C@]1(CO)O[C@H](CO)[C@@H](O)[C@H]1O | 10000 mg/kg
45 | Cc1cc(=O)[nH]o1 | 3110 mg/kg
46 | CCC(CC)COCCOCCCN1C(=O)C2C3C=CC(C3)C2C1=O (stereo not given) | 9500 mg/kg
47 | CCOC(=O)C(C)N(C(=O)c1ccccc1)c1ccc(Cl)c(Cl)c1 (stereo not given) | 1550 mg/kg
48 | CCCCCCCCCc1ccc(C)cc1O | 4000 mg/kg
49 | CCCC=C1OC(=O)c2ccccc21 | 1850 mg/kg
50 | CCN(CCC#N)c1ccc(N=Nc2nc3ccc(S(C)(=O)=O)cc3s2)c(C)c1 | 400 mg/kg

Row | SMILES | LD50
51 | CNC(=O)C(C)SCCSP(=O)(OC)OC (stereo not given) | 64 mg/kg
52 | COC1CCC(OC2C(C)C(O)(C(C)C(=O)O)OC(CC3CC(OC)C(C)C4(O3)OC(C)(C3CCC(C5CCC(C6OC(C)(O)C(C)C(OC)C6C)O5)O3)C(OC)C4C)C2(C)OC)OC1C (stereo not given) | 7 mg/kg
53 | CN(C)P1(=S)OCc2cc([N+](=O)[O-])ccc2O1 (stereo not given) | 125 mg/kg
54 | Cc1ccc(C)c(N)c1 | 1300 mg/kg
55 | CCOP(=O)(OCC)O/C(=C\Cl)c1cc(Cl)ccc1Cl | 35 mg/kg
56 | CC(=O)C(c1ccccc1)N1CCN(CCOc2ccccc2)CC1 (stereo not given) | 800 mg/kg
57 | CCCOCCOC(C)=O | 9460 mg/kg
58 | Cc1ccc2c(c1)c(-c1ccccc1)cn2N(CCN(C)C)CCN(C)C | 980 mg/kg
59 | CC(C)=Cc1ccc(C(C)C(=O)O)cc1 (stereo not given) | 1300 mg/kg
60 | O=C1CN2CCOC2(c2ccccc2Cl)c2cc(Cl)ccc2N1 (stereo not given) | 1780 mg/kg
61 | COP(=O)(SC(C)C)SC(C)C | 119 mg/kg
62 | CCCCCCCc1cc(C)c(O)c(C)c1 | 1600 mg/kg
63 | COP(=O)(OC)C(OC(=O)CCl)C(Cl)(Cl)Cl (stereo not given) | 344 mg/kg
64 | N#CC1CCCCC1 | 80 mg/kg
65 | FC(F)(F)c1nnc2c3ccccc3ccn12 | 660 mg/kg
66 | CC(O)CC(C)O (stereo not given) | 6860 mg/kg
67 | CC(C)=CCCC(C)CC#N (stereo not given) | 5300 mg/kg
68 | COC(=O)N(CCCl)N=O | 20 mg/kg
69 | FC(F)(F)c1nc2c(Cl)c(Br)c(Br)c(Br)c2[nH]1 | 5.25 mg/kg
70 | O=C1CSc2ncccc2N1 | 1050 mg/kg
71 | Fc1ccc(Br)c(F)c1 | 300 mg/kg
72 | Cc1cc(O)cc(C)c1Cl | 3830 mg/kg
73 | OCCCS | 116 mg/kg
74 | C=CCN(CC=C)CC=C | 1030 mg/kg
75 | N#Cc1cccnc1 | 1180 mg/kg

Row | SMILES | LD50
76 | Nc1ccc(S(=O)(=O)O)c2cccc(O)c12 | 6210 mg/kg
77 | O=c1ncc2[nH]c(=O)[nH]c2[nH]1 | 1820 mg/kg
78 | Cc1cc(OC(=O)N(C)C)n(-c2ccccc2)n1 | 62 mg/kg
79 | CC/C=C\CCO | 4700 mg/kg
80 | CCC(C)C(C(=O)OCC[N+](C)(CC)CC)c1ccccc1 (stereo not given) | 1260 mg/kg
81 | OC1OCC2C1C1(Cl)C(Cl)=C(Cl)C2(Cl)C1(Cl)Cl (stereo not given) | 1750 mg/kg
82 | CC(C)N1CCCC1=O | 2900 mg/kg
83 | CCCCCCCCCc1ccc(O)cc1 | 1620 mg/kg
84 | CN1CCCC(CC2c3ccccc3Sc3ccccc32)C1 (stereo not given) | 1460 mg/kg
85 | C1CCCCC1 | 12700 mg/kg
86 | Cc1ccc(/N=C/NSN(Cc2ccccc2)Cc2ccccc2)c(C)c1 | 1050 mg/kg
87 | CC=Cc1ccc(OC(C)=O)c(OC)c1 | 3450 mg/kg
88 | Cc1ccsc1/C=C/C1=NCCCN1C | 926 mg/kg
89 | CC(CN(C)C)CN1c2ccccc2CCc2ccccc21 (stereo not given) | 800 mg/kg
90 | CC(=O)OC1CC(C)CCC1C(C)C (stereo not given) | 7620 mg/kg
91 | CC(c1ccccc1)N(C)C (stereo not given) | 420 mg/kg
92 | COc1ccc2c(c1)-c1c(ccc(OC)c1O)CC(CCc1ccccc1)N(C)CC2 (stereo not given) | 500 mg/kg
93 | CCCCCCCC[N+](CC)(CC)CCOC(=O)C(C1CCCC1)C1CCCC1 | 1200 mg/kg
94 | CC(C)(N=C=O)c1cccc(C(C)(C)N=C=O)c1 | 4600 mg/kg
95 | O=S(=O)(Cl)CCl | 372 mg/kg
96 | CN(C)/N=N/c1ccc(C(N)=O)cc1 | 54 mg/kg
97 | CCON(CC)N=O | 1000 mg/kg
98 | CCCCC(CC)CNc1ccccc1 (stereo not given) | 2410 mg/kg
99 | CNCCCC1c2ccccc2CN(C)c2ccccc21 (stereo not given) | 331 mg/kg
100 | COP(=O)(OC)Sc1ccc([N+](=O)[O-])cc1 | 42.9 mg/kg

Row | SMILES | LD50
101 | CCCCCCCCc1ccc(C(CBr)OCCCC)cc1 (stereo not given) | 250 mg/kg
102 | FC(F)(F)c1nc2c(Cl)c(Br)c(Br)c(Cl)c2[nH]1 | 3.43 mg/kg
103 | OCCNCC(O)CNCCO | 7200 mg/kg
104 | C=C(CCl)CCl | 150 mg/kg
105 | CSCC(=O)N(C)C(=O)Oc1ccccc1OC(C)C | 650 mg/kg
106 | CC(C)(C)N1CCC(c2ccccc2)(c2ccccc2)CC1 | 165 mg/kg
107 | CCCOC(N)=O | 1880 mg/kg
108 | Cc1ccnc(SCCC(F)=C(F)F)n1 | 844 mg/kg
109 | CCOP(=O)(O)Sc1ccc(C)cc1 | 50 mg/kg
110 | C[N+](C)(C)CCO | 6640 mg/kg
111 | CCN(CC)C(C)CN1c2ccccc2Sc2ccccc21 (stereo not given) | 1700 mg/kg
112 | O=C1c2ccccc2C(=O)C1c1ccc(C(F)(F)F)cc1 | 198 mg/kg
113 | CN1CCC(c2c[nH]c3ccccc23)C1 (stereo not given) | 413 mg/kg
114 | CN(CC(=O)N1CCOCC1)Cc1c(Cl)cccc1NC(=O)c1ccccc1 | 4200 mg/kg
115 | CCCCCCCCCCCCN=C([O-])C[N+](C)(C)Cc1ccccc1 | 100 mg/kg
116 | CNC(=O)c1c(I)c(C(=O)NCC(=O)Nc2c(I)c(C(=O)O)c(I)c(C(=O)NCCO)c2I)c(I)c(N(C)C(C)=O)c1I | 13300 mg/kg
117 | OCC1COC(c2ccccc2)O1 (stereo not given) | 3150 mg/kg
118 | OC(CCl)COCCCCCOCC(O)CCl (stereo not given) | 2250 mg/kg
119 | COP(=S)(OC)SCn1nc(Br)ccc1=O | 3.75 mg/kg
120 | O=C(Nc1ccc(Cl)cc1)c1cc(Cl)cc(-c2ccc(Cl)cc2)c1O | 2810 mg/kg
121 | CCOP(=S)(OCC)OCCS(=O)CC (stereo not given) | 100 mg/kg
122 | O=C1CC2(CCCC2)CC(=O)N1CCCCN1CCN(c2nsc3ccccc23)CC1 | 1850 mg/kg
123 | Nc1ncnc2c1ccn2C1OC(CO)C(O)C1O (stereo not given) | 16 mg/kg
124 | C=CCC1=C(C)C(OC(=O)C2C(C=C(C)C)C2(C)C)CC1=O (stereo not given) | 685 mg/kg
125 | COP(=O)(OC)OC(=C(Cl)Cl)c1ccc(Cl)cc1Cl | 109 mg/kg
